Assay results: ChEMBL document CHEMBL1201862, “PubChem BioAssay data set” (2004)
Active and inactive are the calls of the source.

Experiments:
[1] = COV362 cell viability loss – plate reader, dry powder, SA12, cytotoxicity control for PAX8 inhibitor project, dose response (AID 743144); format: functional, cell-based
[2] = OV-90 cell viability loss – plate reader, dry powder, SA8, PAX8 inhibitor project, dose response (AID 743149); format: functional, cell-based
[3] = COV434 cell viability loss – plate reader, dry powder, SA7, cytotoxicity control for PAX8 inhibitor project, dose response (AID 743145); format: functional, cell-based
[4] = PAX8-dependent cell viability loss – plate reader, dry powder, dose response (AID 743049); format: functional, cell-based
[5] = IGROV1 cell killing – plate reader, dry powder samples, PAX8 inhibitor project, dose response (AID 743043); format: functional, cell-based; conditions: IGROV-1
[6] = OVCAR-3 cell viability loss – plate reader, dry powder samples, PAX8 inhibitor project, dose response (AID 743044); format: functional, cell-based
[7] = inhibitors acting on PAX2 in cells – cell-based, plate reader, dry powder samples, selectivity assay for PAX8 inhibitor project, dose response (AID 743048); format: functional;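 note: HEK293 cells carrying a WT1 promoter luciferase reporter driven by expressed Pax2; potency is for inhibition of Pax2 driven reporter signal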
[8] = OVCAR4 cell viability loss – plate reader, dry powder, SA11, cytotoxicity control for PAX8 inhibitor project, dose response (AID 743150); format: functional, cell-based; conditions: OVCAR-4
Paired box protein Pax-8 = Paired box protein Pax-8 (Homo sapiens, UniProt Q06710); experiment: PAX8 transcriptional activity inhibition in RMG-I – RMG-I cells, luciferase, cherry-pick, dose response (AID 687027); format: functional, cell-based;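 note: luciferase reporter driven by Pax8 target thyroperoxidase promoter measured by SteadyGlo luminescence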
Sequence of Paired box protein Pax-8 (Q06710 whole entry): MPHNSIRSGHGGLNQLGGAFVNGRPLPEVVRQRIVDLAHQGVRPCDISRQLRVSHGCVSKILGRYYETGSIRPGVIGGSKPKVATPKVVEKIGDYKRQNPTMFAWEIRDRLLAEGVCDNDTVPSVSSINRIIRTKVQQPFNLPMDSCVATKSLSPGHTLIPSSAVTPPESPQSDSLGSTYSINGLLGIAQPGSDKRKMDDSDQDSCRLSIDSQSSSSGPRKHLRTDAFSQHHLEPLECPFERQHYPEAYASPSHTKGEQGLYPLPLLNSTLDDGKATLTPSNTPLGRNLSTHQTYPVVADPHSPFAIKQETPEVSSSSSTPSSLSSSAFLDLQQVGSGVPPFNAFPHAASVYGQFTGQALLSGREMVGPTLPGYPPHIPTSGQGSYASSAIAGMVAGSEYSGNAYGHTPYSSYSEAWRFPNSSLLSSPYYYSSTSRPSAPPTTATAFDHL

Beta-galactosidase = Beta-galactosidase (Escherichia coli, UniProt Q8VNN2); experiment: Dose response counterscreen for EBI2 assay utilizing the enzyme, b-galactosidase.; format: functional
Sequence of Beta-galactosidase (Q8VNN2 whole entry): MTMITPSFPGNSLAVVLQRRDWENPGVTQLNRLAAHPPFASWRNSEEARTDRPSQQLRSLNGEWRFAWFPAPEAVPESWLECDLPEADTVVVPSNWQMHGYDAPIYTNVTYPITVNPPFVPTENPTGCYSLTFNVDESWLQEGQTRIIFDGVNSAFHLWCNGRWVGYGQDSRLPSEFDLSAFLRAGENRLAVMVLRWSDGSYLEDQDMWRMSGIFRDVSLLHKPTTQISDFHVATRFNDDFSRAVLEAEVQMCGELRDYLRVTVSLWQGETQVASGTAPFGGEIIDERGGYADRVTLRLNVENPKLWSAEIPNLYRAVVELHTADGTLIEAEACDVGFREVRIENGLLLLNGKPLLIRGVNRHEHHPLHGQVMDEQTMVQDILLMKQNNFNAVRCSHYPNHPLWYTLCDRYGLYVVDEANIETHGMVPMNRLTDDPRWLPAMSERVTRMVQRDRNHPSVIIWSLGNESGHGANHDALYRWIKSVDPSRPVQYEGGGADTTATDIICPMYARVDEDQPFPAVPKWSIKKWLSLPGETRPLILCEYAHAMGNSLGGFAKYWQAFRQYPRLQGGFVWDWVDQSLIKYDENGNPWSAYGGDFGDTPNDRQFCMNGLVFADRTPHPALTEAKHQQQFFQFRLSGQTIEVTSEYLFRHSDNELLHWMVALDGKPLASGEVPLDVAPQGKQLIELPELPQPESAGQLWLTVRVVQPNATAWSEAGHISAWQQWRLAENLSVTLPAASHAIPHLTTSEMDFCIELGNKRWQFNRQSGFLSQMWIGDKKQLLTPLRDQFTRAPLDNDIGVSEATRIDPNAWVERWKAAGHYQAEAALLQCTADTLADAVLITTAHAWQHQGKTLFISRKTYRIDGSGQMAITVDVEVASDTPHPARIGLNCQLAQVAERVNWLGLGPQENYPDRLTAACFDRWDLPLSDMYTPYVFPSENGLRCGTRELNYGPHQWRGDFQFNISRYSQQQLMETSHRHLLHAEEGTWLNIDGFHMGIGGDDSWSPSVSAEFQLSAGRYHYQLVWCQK

[9] = Late stage assay provider results from the probe development effort to identify inhibitors of the Plasmodium falciparum M18 Aspartyl Aminopeptidase (M18AAP): radiolabel-based cell-based dose response assay to identify compounds that inhibit P. falciparum growth in RBCs, Set 2..; format: functional
[10] = HEK293 cell viability loss – cherry-picked samples, cytotoxicity control, dose response (AID 1053185); format: functional, cell-based
[11] = Dd2 parasite growth inhibition in erythrocytes – SYBR Green, dry powder samples, set 9, dose response (AID 1159568); format: functional, cell-based
cells = format: functional
[12] = HepG2 cell cytotoxicity, dose response, cytotoxicity control for non-replicating M. tuberculosis project (AID 489018); format: functional; conditions: Mycobacterium tuberculosis
[13] = system: Streptococcus sp. 'group A'; experiment: Streptococcus pyogenes SK(-)GAS viability under kanamycin – luminescence, BacTiterGlo, confirmation, counter-screen for streptokinase expression inhibitor project, dose response (AID 1900); format: functional, organism-based
[14] = NIH3T3 cell viability loss, ATP content – CellTiter-Glo luminescence, cherry-pick, set 2, cytotoxicity control for HSP40 inhibitor project, dose response (AID 624265); format: functional
[15] = rescue of ΔF508 CFTR function, airway epithelium – human bronchial epithelial cells, plate reader, cherry-pick, two tests, dose response (AID 743267); format: functional, cell-based
Streptococcus = experiment: GAS UMAA2166 growth inhibition – luminescence, BacTiterGlo, counter-screen for streptokinase expression inhibitor project, dose response (AID 1915); format: functional, organism-based;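 note: potency for reduction of bacterial viability or growth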
H4 = experiment: Luminescence Cell-Based Dose Response HTS to Identify Activators of 5'UTR Stem-Loop Driven Prion Protein mRNA Translation in H4 Neuroglioblastoma Cells. [Related pubchem assays: 1829 (Project Summary), 1814 (Primary HTS)]; format: functional; conditions: Homo sapiens
[16] = Luminescence Cell-Based Dose Confirmation HTS to Identify Activators of 5'UTR Stem-Loop Driven Alpha-Synuclein mRNA Translation in H4 Neuroglioblastoma Cells. [Related pubchem assays: 1829 (Project Summary), 1814 (Primary HTS)]; format: functional
[17] = Vero E6 cell cytotoxicity, dose response, cytotoxicity control for non-replicating M. tuberculosis project, secondary assay (AID 492998); format: functional, VeroE6; conditions: Vero C1008
Streptokinase A = biological target: T1, Streptokinase A (Streptococcus pyogenes serotype M1, UniProt P10520); experiment: viability-normalized secreted streptokinase activity reduction – plasminogen activation absorbance, OD405, dose response (AID 1914); format: functional, Streptococcus pyogenes M1 GAS;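 note: secreted streptokinase activity via plasminogen activation per viability signal from cell pellet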
T1 sequence (P10520 whole entry): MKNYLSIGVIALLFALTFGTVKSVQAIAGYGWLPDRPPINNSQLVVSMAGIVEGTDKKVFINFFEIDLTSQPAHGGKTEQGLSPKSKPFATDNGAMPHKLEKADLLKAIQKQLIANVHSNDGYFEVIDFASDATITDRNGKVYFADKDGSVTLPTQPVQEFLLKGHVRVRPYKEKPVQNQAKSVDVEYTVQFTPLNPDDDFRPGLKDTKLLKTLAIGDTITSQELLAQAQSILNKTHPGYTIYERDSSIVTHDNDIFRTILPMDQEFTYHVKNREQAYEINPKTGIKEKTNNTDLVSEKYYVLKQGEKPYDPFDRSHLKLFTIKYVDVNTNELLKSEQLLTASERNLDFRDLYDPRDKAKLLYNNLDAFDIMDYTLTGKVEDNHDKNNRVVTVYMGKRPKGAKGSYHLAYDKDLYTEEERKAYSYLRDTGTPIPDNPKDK

[18] = THP-1 cell cytotoxicity, dose response, cytotoxicity control for non-replicating M. tuberculosis project (AID 489025); format: functional
[19] = Luminescence Cell-Based Dose Response HTS to Identify Activators of Luciferase Translation or Activity in H4 […] Cells. [Related pubchem assays: 1829 (Project Summary), 1814 (Primary HTS)]; format: functional
[20] = microbe, parasite or virus in culture; format: functional; conditions: Mycobacterium tuberculosis
[21] = biological target: G-protein coupled receptor 55 (Homo sapiens, UniProt Q9Y2T6); experiment: inhibition of LPI-stimulated GPR55 beta-arrestin translocation – imaging, U2OS, beta-arrestin-GFP, LPI agonist, primary screen (AID 2013); format: functional;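 note: antagonist potency measured as reduced agonist-driven arrestin aggregation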
Sequence of G-protein coupled receptor 55 (Q9Y2T6 whole entry): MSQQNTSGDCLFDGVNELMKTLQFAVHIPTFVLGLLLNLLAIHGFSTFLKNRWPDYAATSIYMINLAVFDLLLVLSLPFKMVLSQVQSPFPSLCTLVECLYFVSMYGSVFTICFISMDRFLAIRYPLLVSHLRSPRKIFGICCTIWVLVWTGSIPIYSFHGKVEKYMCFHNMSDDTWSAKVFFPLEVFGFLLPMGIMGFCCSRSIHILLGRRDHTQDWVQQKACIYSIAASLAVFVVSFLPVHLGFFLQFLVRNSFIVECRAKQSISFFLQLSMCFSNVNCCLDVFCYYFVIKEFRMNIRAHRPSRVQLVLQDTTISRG

NS3 = NS3 (Hepatitis C virus, UniProt A3EZJ3); experiment: NS3h DNA-binding inhibition IC50 – biochemical, fluorescence polarization, ChemBridge library, dose response (AID 743264)
Sequence of NS3 (A3EZJ3 whole entry): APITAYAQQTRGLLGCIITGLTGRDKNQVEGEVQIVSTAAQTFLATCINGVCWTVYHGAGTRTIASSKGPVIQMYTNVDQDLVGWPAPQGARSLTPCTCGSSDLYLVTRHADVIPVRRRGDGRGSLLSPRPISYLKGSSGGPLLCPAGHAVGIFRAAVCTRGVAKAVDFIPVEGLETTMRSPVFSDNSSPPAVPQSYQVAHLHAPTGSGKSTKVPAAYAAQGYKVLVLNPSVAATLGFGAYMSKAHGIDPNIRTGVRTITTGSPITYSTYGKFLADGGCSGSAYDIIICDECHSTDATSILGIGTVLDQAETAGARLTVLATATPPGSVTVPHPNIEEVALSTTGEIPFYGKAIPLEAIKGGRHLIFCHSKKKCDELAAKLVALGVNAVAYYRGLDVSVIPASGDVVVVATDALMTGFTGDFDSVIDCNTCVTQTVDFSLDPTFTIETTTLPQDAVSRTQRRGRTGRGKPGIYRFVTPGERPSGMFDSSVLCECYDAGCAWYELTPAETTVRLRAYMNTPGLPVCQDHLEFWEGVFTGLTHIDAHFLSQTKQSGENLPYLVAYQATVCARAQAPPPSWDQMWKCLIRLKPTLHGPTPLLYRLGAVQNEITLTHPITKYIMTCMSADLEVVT

[22] = Late stage assay provider results from the probe development effort to identify selective inhibitors of heat shock protein 90 (HSP90): Absorbance-based cell proliferation assay in SKBR3 cells.; format: functional; conditions: SK-BR-3
[23] = Late stage assay provider results from the probe development effort to identify selective inhibitors of heat shock protein 90 (HSP90): Absorbance-based cell proliferation assay in MCF7 cells.; format: functional
[24] = Mycobacterium tuberculosis BioA enzyme inhibitor Measured in Biochemical System Using Plate Reader - 2163-02_Inhibitor_Dose_DryPowder_Activity.
[25] = viability loss in HepG2 hepatoma cells – cell-based, ATP luminescence, cherry-pick, activator set 2, cytotoxicity control, dose response (AID 1053143); format: functional

Which AC50 [1] does the source give for `O=C(c1cc(-c2cccs2)on1)N1CCN(C(c2ccccc2)c2ccccc2)CC1` here?
Its AC50 is 48.4 µM (active).

What about the AC50 [2] of the same compound?
The AC50 was > 100 µM (inactive).

What about the AC50 [3] of the same compound?
Its AC50 is 80.1 µM (active).

And the AC50 [4]?
The AC50 was 9.18 µM (active).

And the AC50 [5]?
The AC50 was 44.1 µM (active).

What about the AC50 [6] of the same compound?
Its AC50 is 60.2 µM (active).

And the AC50 [7]?
The AC50 was 49.9 µM (active).

What about the AC50 [8] of the same compound?
Its AC50 is 44.4 µM (active).

And the AC50 (Paired box protein Pax-8)?
Its AC50 is 0.733 µM (active).

And the IC50 (Beta-galactosidase)?
Its IC50 is > 80 µM (inactive).

For `COc1ccc(CCNc2ccnc3cc(Cl)ccc23)cc1OC`, which IC50 [9] is on record?
Its IC50 is 0.66 µM (active).

Which AC50 [10] does the source give for `C[C@H](CO)N1C[C@H](C)[C@@H](CN(C)Cc2ccccc2)Oc2c(NC(=O)Cc3cn(C)c4ccccc34)cccc2C1=O` here?
The AC50 was 40.1 µM (active).

What about the AC50 [11] of the same compound?
The AC50 was 1.97 µM (active).

Which IC50 (cells) does the source give for `NC(=O)N=Nc1c2nc3ccccc3[nH]c-2c2ccccc12` here?
The IC50 was 11.1 µM (active).

What about the CC50 [12] of the same compound?
The CC50 was > 20 µM (active).

What about the EC50 [13] of the same compound?
The EC50 was 7.71 µM (active).

What about the AbsAC35_uM [14] of the same compound?
The AbsAC35_uM was 58.66 µM.

And the AC50 [15]?
Its AC50 is 8.41 µM (active).

What about the EC50 (Streptococcus) of the same compound?
The EC50 was > 150 µM (not active).

And the EC50 (H4)?
The EC50 was > 120 µM (not active).

And the EC50 [16]?
The EC50 was 13 µM (active).

And the CC50 [17]?
Its CC50 is 11.9 µM (active).

What about the EC50 (Streptokinase A) of the same compound?
Its EC50 is 46.2 µM (active).

What about the CC50 [18] of the same compound?
Its CC50 is 23.5 µM (active).

And the EC50 [19]?
The EC50 was > 120 µM (not active).

What about the CC50 [20] of the same compound?
The CC50 was 7.97 µM (active).

And the IC50 [21]?
Its IC50 is 2.88 µM (active).

For `O=C1NC(=O)N(c2ccccc2F)C(=O)/C1=C/c1ccc(-c2cc(C(=O)O)ccc2Cl)o1`, which IC50 (NS3) is on record?
Its IC50 is 35 µM (inactive).

Which IC50 [22] does the source give for `O=c1oc2ccc(OCCc3ccc(F)cc3)cc2cc1Br` here?
Its IC50 is 91.7 µM (inactive).

And the IC50 [23]?
Its IC50 is > 100 µM (inactive).

With `O=C(Nc1cccnc1)N1CCN(c2ccccc2)CC1` as the compound, how does the AC50 [24] read?
The AC50 was 13 µM (active).

With `CCC(=O)Nc1sc(C(=O)Nc2ccccc2)c(C)c1C(=O)OC` as the compound, how does the AC50 [25] read?
Its AC50 is 26 µM (active).
